Results: ChEMBL document CHEMBL3627608, “Crystal structures of human RIP2 kinase catalytic domain complexed with ATP-competitive inhibitors: Foundations for understanding inhibitor selectivity” (Bioorg Med Chem, 2015)

Key:
[1] = target: MAP kinase-activated protein kinase 3 (Homo sapiens) (UniProt Q16644); experiment: Inhibition of MAPKAPK3 (unknown origin) at 10 uM after 120 mins P33 radiolabeled kinase activity assay
[2] = target: Mitogen-activated protein kinase kinase kinase 11 (Homo sapiens) (UniProt Q16584); experiment: Inhibition of MLK3 (unknown origin) at 10 uM after 120 mins P33 radiolabeled kinase activity assay
Mitogen-activated protein kinase kinase kinase 11 (Homo sapiens), sequence (Q16584 whole entry, looked up): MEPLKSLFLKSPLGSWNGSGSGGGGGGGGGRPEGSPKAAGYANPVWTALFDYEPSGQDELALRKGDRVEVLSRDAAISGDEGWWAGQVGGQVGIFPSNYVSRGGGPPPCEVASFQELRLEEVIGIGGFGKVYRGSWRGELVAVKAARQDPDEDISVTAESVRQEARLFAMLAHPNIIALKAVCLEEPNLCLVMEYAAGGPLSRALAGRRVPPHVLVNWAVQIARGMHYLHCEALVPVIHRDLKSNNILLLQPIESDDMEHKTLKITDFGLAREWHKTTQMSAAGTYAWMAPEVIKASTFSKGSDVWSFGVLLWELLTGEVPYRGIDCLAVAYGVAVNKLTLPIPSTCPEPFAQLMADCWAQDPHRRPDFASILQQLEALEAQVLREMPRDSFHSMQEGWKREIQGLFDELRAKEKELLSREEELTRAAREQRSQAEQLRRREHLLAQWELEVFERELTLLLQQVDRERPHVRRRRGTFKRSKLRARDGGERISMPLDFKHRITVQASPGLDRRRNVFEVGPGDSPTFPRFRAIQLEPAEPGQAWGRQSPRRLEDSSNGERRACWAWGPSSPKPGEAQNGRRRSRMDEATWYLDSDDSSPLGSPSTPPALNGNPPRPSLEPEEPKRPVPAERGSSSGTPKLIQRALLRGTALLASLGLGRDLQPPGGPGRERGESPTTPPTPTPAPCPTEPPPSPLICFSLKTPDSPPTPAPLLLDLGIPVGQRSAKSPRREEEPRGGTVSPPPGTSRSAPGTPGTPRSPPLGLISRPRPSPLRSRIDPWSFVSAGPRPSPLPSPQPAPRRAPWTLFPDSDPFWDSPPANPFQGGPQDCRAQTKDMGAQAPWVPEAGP

[3] = target: Serine/threonine-protein kinase Nek4 (Homo sapiens) (UniProt P51957); experiment: Inhibition of NEK4 (unknown origin) at 10 uM after 120 mins P33 radiolabeled kinase activity assay
[4] = target: T1, Inhibitor of nuclear factor kappa-B kinase subunit beta (Homo sapiens) (UniProt O14920); experiment: Inhibition of IKKbeta (unknown origin) at 10 uM after 120 mins P33 radiolabeled kinase activity assay
T1 sequence (whole entry): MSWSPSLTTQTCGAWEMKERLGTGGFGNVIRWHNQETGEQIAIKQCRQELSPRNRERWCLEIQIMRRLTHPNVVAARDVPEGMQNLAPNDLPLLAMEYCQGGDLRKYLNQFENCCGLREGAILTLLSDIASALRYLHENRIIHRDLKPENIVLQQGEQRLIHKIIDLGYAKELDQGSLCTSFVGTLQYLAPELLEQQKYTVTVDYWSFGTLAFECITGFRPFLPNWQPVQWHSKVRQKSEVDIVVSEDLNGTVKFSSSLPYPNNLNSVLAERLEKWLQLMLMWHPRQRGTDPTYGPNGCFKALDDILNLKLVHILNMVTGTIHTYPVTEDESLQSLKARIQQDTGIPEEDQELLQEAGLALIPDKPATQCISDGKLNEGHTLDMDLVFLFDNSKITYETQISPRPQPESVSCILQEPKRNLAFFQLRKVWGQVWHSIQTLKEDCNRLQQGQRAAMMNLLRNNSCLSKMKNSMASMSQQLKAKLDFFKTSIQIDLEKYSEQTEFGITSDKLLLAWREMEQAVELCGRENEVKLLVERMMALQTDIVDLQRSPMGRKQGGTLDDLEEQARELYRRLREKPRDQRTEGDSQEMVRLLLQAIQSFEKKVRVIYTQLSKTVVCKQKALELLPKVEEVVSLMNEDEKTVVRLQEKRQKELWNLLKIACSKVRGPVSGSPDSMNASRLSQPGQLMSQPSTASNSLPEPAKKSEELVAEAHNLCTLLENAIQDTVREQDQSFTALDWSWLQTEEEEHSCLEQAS

[5] = target: Serine/threonine-protein kinase PAK 6 (Homo sapiens) (UniProt Q9NQU5); experiment: Inhibition of PAK6 (unknown origin) at 10 uM after 120 mins P33 radiolabeled kinase activity assay
Serine/threonine-protein kinase PAK 6 (Homo sapiens), sequence (Q9NQU5 whole entry, looked up, canonical isoform): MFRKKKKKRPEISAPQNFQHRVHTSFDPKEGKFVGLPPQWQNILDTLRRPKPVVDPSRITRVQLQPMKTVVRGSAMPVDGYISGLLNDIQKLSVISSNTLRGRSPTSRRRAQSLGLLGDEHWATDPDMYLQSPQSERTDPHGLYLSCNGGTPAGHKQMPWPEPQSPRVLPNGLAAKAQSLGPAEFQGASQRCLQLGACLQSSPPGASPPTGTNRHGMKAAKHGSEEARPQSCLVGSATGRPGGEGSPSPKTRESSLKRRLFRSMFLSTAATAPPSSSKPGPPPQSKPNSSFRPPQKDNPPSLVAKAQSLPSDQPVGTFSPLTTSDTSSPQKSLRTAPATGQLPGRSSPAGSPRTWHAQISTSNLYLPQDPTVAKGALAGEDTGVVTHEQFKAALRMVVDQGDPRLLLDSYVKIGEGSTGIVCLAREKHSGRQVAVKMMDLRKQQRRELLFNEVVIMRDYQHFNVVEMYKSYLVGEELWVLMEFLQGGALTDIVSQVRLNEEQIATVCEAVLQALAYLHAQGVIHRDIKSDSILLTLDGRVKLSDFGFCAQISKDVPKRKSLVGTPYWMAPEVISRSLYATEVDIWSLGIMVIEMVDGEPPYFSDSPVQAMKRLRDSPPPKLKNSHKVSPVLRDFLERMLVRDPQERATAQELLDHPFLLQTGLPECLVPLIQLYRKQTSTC

[6] = target: Casein kinase I isoform gamma-3 (Homo sapiens) (UniProt Q9Y6M4); experiment: Inhibition of CK1gamma3 (unknown origin) at 10 uM after 120 mins P33 radiolabeled kinase activity assay
Casein kinase I isoform gamma-3 (Homo sapiens), sequence (Q9Y6M4 whole entry, looked up, canonical isoform): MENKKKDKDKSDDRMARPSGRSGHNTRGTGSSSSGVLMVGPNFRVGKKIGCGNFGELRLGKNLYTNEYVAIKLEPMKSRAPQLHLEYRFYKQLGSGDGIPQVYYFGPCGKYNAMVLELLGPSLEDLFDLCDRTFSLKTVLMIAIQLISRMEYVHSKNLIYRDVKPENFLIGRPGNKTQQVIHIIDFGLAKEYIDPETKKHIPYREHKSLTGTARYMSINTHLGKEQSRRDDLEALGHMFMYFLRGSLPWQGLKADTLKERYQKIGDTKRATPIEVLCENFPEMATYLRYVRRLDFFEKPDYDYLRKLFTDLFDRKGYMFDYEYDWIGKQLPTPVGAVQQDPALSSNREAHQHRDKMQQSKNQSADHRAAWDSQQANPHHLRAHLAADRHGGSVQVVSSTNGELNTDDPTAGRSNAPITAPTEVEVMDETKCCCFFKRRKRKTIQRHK

[7] = target: Mitogen-activated protein kinase kinase kinase kinase 1 (Homo sapiens) (UniProt Q92918); experiment: Inhibition of HPK1 (unknown origin) at 10 uM after 120 mins P33 radiolabeled kinase activity assay
Mitogen-activated protein kinase kinase kinase kinase 1 (Homo sapiens), sequence (Q92918 whole entry, looked up): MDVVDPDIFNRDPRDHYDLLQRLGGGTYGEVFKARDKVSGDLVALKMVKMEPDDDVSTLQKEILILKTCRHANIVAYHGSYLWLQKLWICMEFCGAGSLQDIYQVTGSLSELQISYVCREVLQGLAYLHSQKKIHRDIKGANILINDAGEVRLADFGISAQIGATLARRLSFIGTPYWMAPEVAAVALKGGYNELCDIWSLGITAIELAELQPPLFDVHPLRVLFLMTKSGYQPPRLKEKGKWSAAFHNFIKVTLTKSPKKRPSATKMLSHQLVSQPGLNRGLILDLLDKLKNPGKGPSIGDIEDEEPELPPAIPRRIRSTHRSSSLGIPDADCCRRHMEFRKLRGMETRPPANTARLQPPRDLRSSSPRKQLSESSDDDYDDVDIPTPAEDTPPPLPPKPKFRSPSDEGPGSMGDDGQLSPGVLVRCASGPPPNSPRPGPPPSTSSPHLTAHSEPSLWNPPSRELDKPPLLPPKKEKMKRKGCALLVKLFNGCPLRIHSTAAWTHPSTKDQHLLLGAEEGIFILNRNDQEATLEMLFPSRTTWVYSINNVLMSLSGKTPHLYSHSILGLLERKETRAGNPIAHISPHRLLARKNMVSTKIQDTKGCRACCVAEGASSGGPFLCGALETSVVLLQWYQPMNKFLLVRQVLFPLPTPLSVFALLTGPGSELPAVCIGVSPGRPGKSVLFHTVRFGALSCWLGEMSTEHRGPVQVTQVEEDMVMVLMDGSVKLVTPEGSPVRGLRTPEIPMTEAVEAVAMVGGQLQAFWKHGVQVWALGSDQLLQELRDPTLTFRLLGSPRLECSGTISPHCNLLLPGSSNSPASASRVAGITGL

[8] = target: T2, Ephrin type-B receptor 2 (Homo sapiens) (UniProt P29323); experiment: Inhibition of EPHB2 (unknown origin) at 10 uM after 120 mins P33 radiolabeled kinase activity assay
T2 sequence (whole entry): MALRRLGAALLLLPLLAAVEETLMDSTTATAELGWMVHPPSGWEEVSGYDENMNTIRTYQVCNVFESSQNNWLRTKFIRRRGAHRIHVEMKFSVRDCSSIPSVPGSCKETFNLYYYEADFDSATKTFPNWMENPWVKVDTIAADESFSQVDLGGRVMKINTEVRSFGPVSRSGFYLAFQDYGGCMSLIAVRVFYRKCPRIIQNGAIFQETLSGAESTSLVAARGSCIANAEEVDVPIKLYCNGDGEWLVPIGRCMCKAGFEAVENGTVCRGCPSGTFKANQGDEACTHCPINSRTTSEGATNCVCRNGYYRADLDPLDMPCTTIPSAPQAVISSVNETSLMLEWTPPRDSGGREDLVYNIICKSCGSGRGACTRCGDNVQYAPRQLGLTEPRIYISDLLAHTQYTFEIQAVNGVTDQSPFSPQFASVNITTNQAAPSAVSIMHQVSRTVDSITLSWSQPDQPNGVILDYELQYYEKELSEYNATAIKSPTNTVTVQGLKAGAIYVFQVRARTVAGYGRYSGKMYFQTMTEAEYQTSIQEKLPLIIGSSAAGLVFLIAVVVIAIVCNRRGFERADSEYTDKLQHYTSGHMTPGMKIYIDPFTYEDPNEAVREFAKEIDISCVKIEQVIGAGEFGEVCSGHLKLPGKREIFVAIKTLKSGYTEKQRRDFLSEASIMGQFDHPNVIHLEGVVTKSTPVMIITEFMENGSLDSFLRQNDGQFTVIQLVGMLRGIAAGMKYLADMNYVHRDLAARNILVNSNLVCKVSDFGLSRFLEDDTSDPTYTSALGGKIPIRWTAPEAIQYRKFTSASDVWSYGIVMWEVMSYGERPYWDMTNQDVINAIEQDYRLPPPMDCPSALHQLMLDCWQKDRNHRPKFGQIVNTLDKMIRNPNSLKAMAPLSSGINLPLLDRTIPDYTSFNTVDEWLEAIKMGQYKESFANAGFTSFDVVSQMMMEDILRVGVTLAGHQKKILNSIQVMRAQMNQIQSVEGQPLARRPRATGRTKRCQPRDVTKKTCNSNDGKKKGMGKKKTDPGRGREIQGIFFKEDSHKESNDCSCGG

[9] = target: Citron Rho-interacting kinase (Homo sapiens) (UniProt O14578); experiment: Inhibition of STK21 (unknown origin) at 10 uM after 120 mins P33 radiolabeled kinase activity assay
Citron Rho-interacting kinase (Homo sapiens), sequence (O14578 whole entry): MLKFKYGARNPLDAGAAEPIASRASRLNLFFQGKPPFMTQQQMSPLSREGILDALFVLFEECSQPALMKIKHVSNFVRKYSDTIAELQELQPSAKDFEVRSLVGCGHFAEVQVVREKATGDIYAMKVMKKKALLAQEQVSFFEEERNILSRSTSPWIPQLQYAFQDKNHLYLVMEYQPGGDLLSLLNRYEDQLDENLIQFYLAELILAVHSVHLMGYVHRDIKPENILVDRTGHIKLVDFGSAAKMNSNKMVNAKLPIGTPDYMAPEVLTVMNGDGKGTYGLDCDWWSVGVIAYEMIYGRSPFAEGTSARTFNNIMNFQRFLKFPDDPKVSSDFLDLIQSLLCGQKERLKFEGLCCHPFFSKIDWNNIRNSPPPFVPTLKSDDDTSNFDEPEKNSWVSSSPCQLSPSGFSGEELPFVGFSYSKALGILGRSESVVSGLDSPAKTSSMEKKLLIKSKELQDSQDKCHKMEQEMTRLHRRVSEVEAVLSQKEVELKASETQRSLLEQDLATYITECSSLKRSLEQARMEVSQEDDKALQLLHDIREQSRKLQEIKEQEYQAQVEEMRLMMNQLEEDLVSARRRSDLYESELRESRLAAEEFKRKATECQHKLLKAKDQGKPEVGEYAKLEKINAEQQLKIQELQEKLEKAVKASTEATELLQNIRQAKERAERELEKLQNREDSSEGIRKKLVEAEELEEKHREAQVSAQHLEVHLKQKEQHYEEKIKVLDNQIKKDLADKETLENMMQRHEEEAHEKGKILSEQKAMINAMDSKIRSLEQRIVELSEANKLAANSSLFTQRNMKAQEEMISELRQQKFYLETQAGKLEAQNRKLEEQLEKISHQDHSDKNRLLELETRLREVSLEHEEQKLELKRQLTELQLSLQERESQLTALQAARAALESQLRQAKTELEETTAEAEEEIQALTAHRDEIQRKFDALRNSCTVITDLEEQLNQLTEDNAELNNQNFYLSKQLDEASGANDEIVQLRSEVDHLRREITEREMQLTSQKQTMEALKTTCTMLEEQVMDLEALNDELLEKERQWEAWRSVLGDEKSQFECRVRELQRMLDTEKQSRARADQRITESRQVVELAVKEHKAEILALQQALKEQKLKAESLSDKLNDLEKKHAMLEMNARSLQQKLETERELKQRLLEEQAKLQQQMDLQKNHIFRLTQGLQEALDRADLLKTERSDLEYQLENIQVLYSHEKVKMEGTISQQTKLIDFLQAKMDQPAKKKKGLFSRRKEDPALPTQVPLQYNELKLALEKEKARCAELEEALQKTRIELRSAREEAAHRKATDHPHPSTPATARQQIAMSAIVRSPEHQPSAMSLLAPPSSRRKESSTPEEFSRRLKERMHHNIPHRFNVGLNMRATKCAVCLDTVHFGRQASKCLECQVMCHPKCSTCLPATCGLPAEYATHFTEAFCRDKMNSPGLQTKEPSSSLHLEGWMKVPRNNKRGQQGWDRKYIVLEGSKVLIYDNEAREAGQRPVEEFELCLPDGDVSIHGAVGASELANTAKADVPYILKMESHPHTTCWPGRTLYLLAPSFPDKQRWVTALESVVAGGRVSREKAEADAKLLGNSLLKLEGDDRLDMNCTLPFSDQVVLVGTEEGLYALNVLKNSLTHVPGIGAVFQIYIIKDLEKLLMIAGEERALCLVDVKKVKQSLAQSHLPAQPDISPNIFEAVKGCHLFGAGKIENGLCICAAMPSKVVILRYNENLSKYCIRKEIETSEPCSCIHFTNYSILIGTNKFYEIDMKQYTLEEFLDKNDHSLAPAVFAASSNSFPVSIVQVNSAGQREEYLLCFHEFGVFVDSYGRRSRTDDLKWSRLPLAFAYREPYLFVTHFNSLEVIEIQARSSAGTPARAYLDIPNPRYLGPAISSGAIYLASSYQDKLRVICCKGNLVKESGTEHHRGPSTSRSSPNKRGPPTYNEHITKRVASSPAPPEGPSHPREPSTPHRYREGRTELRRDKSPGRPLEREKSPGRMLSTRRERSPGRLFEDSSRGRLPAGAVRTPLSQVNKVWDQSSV

| Structure (SMILES) | inhibition [1] | inhibition [2] | inhibition [3] | inhibition [4] | inhibition [5] | inhibition [6] | inhibition [7] | inhibition [8] | inhibition [9] |
| --- | --- | --- | --- | --- | --- | --- | --- | --- | --- |
| COCCNC(=O)c1ccc2c(c1)nc(-c1cnc(-c3ccc(Cl)cc3)[nH]1)n2CCOC | 0.16% | 6.84% | -2.37% | -5.88% | 3.33% | 0.42% | -3.48% | 20.3% | -5.27% |
| CS(=O)(=O)c1cccc(Nc2nccc(-c3sc(N4CCOCC4)nc3-c3cccc(NS(=O)(=O)c4c(F)cccc4F)c3)n2)c1 | -3.69% | 92.7% | 59.9% | 1.51% | 17.4% | 5.39% | 31.9% | 74.9% | -3.87% |
| CC(C)(C)c1cc(NC(=O)Nc2ccc(Oc3ccncc3)cc2)no1 | -4.91% | 60.1% | 21.7% | -0.16% | 8.88% | 3.82% | 57.6% | 97.7% | -1.52% |
